According to ChEMBL document CHEMBL4196088, “Induction of cell killing and autophagy by amphiphilic pyrrolidine derivatives on human pancreatic cancer cells” (Eur J Med Chem, 2018):
Active and inactive are the calls of the source. No cut-off for these calls is given here.

Tests used:
PK9 [1] = assay: Growth inhibition of human PK9 cells at 20 uM after 72 hrs by MTT assay; type: functional, cell-based
SK-BR-3 = assay: Growth inhibition of human SKBR3 cells at 20 uM after 72 hrs; type: functional, cell-based
PANC-1 [2] = assay: Growth inhibition of human PANC1 cells at 20 uM after 72 hrs; type: functional, cell-based
PANC-1 [3] = assay: Growth inhibition of human PANC1 cells after 72 hrs by XTT assay; type: functional, cell-based; conditions: PANC-1, 72 h
BXPC-3 [4] = assay: Growth inhibition of human BxPC3 cells after 72 hrs by XTT assay; type: functional, cell-based; conditions: BXPC-3, 72 h
PANC-1 [5] = assay: Induction of apoptosis in human PANC1 cells assessed as accumulation at sub-G0/G1 phase at 20 uM after 24 hrs by propidium iodide staining based flow cytometry (reference value: 0.6 to 0.7%); type: functional
PK9 [6] = assay: Growth inhibition of human PK9 cells after 72 hrs by MTT assay; type: functional, cell-based; conditions: PK9, 72 h
PANC-1 [7] = assay: Induction of apoptosis in human PANC1 cells assessed as accumulation at sub-G0/G1 phase at 10 uM after 48 hrs by propidium iodide staining based flow cytometry (reference value: 0.2 to 2.9%); type: functional
MIA PaCa-2 = assay: Growth inhibition of human MIAPaCa2 cells after 72 hrs by MTT assay; type: functional, cell-based; conditions: MIA PaCa-2, 72 h
PANC-1 [8] = assay: Induction of apoptosis in human PANC1 cells assessed as accumulation at sub-G0/G1 phase at 10 uM after 72 hrs by propidium iodide staining based flow cytometry (reference value: 1.6 to 3.2%); type: functional
PANC-1 [9] = assay: Induction of apoptosis in human PANC1 cells assessed as accumulation at sub-G0/G1 phase at 20 uM after 72 hrs by propidium iodide staining based flow cytometry (reference value: 1.6 to 3.2%); type: functional
PANC-1 [10] = assay: Induction of apoptosis in human PANC1 cells assessed as accumulation at sub-G0/G1 phase at 20 uM after 48 hrs by propidium iodide staining based flow cytometry (reference value: 0.2 to 2.9%); type: functional
PANC-1 [11] = assay: Induction of apoptosis in human PANC1 cells assessed as accumulation at sub-G0/G1 phase at 10 uM after 24 hrs by propidium iodide staining based flow cytometry (reference value: 0.6 to 0.7%); type: functional
BXPC-3 [12] = assay: Induction of apoptosis in human BxPC3 cells assessed as accumulation at sub-G0/G1 phase at 20 uM after 72 hrs by propidium iodide staining based flow cytometry (reference value: 3.4%); type: functional
[13] = Induction of apoptosis in HPNE cells assessed as accumulation at sub-G0/G1 phase at 20 uM after 48 hrs by propidium iodide staining based flow cytometry (reference value: 0.7%); type: cell-based; conditions: human
Fibroblast [14] = assay: Induction of apoptosis in human primary fibroblasts assessed as accumulation at sub-G0/G1 phase at 10 uM after 48 hrs by propidium iodide staining based flow cytometry (reference value: 6.1%); type: cell-based
BXPC-3 [15] = assay: Induction of apoptosis in human BxPC3 cells assessed as accumulation at sub-G0/G1 phase at 10 uM after 72 hrs by propidium iodide staining based flow cytometry (reference value: 3.4%); type: functional
BXPC-3 [16] = assay: Induction of apoptosis in human BxPC3 cells assessed as accumulation at sub-G0/G1 phase at 20 uM after 24 hrs by propidium iodide staining based flow cytometry (reference value: 2.3%); type: functional
BXPC-3 [17] = assay: Induction of apoptosis in human BxPC3 cells assessed as accumulation at sub-G0/G1 phase harboring pSFFV-Bcl-XL at 20 uM after 48 hrs by propidium iodide staining based flow cytometry (reference value: 1.3%); type: functional
[18] = Induction of apoptosis in HPNE cells assessed as accumulation at sub-G0/G1 phase at 20 uM after 72 hrs by propidium iodide staining based flow cytometry (reference value: 6.6%); type: cell-based; conditions: human
BXPC-3 [19] = assay: Induction of apoptosis in human BxPC3 cells harboring pSFFV-Bcl-XL assessed as accumulation at sub-G0/G1 phase at 10 uM after 72 hrs by propidium iodide staining based flow cytometry (reference value: 2%); type: functional
PK9 [20] = assay: Induction of apoptosis in human PK9 cells assessed as accumulation at sub-G0/G1 phase at 10 uM after 72 hrs by propidium iodide staining based flow cytometry (reference value: 4%); type: functional
[21] = Induction of apoptosis in HPNE cells assessed as accumulation at sub-G0/G1 phase at 20 uM after 24 hrs by propidium iodide staining based flow cytometry (reference value: 0.6%); type: cell-based; conditions: human
[22] = Induction of apoptosis in HPNE cells assessed as accumulation at sub-G0/G1 phase at 10 uM after 48 hrs by propidium iodide staining based flow cytometry (reference value: 0.7%); type: cell-based; conditions: human
Fibroblast [23] = assay: Induction of apoptosis in human primary fibroblasts assessed as accumulation at sub-G0/G1 phase at 10 uM after 72 hrs by propidium iodide staining based flow cytometry (reference value: 6.7%); type: cell-based
BXPC-3 [24] = assay: Induction of apoptosis in human BxPC3 cells harboring pSFFV-Bcl-XL assessed as accumulation at sub-G0/G1 phase at 10 uM after 24 hrs by propidium iodide staining based flow cytometry (reference value: 1.5%); type: functional
BXPC-3 [25] = assay: Induction of apoptosis in human BxPC3 cells assessed as accumulation at sub-G0/G1 phase at 20 uM after 48 hrs by propidium iodide staining based flow cytometry (reference value: 2.8%); type: functional
Fibroblast [26] = assay: Induction of apoptosis in human primary fibroblasts assessed as accumulation at sub-G0/G1 phase at 10 uM after 24 hrs by propidium iodide staining based flow cytometry (reference value: 4.8%); type: cell-based
BXPC-3 [27] = assay: Induction of apoptosis in human BxPC3 cells assessed as accumulation at sub-G0/G1 phase harboring pSFFV-Bcl-XL at 20 uM after 24 hrs by propidium iodide staining based flow cytometry (reference value: 1.2%); type: functional
[28] = Induction of apoptosis in HPNE cells assessed as accumulation at sub-G0/G1 phase at 10 uM after 24 hrs by propidium iodide staining based flow cytometry (reference value: 0.6%); type: cell-based; conditions: human
BXPC-3 [29] = assay: Induction of apoptosis in human BxPC3 cells assessed as accumulation at sub-G0/G1 phase at 10 uM after 48 hrs by propidium iodide staining based flow cytometry (reference value: 2.8%); type: functional
PK9 [30] = assay: Induction of apoptosis in human PK9 cells assessed as accumulation at sub-G0/G1 phase at 20 uM after 24 hrs by propidium iodide staining based flow cytometry (reference value: 2.2%); type: functional
PK9 [31] = assay: Induction of apoptosis in human PK9 cells assessed as accumulation at sub-G0/G1 phase at 20 uM after 72 hrs by propidium iodide staining based flow cytometry (reference value: 4%); type: functional
BXPC-3 [32] = assay: Induction of apoptosis in human BxPC3 cells assessed as accumulation at sub-G0/G1 phase harboring pSFFV-Bcl-XL at 20 uM after 72 hrs by propidium iodide staining based flow cytometry (reference value: 1.3%); type: functional
PK9 [33] = assay: Induction of apoptosis in human PK9 cells assessed as accumulation at sub-G0/G1 phase at 20 uM after 48 hrs by propidium iodide staining based flow cytometry (reference value: 3.8%); type: functional
PK9 [34] = assay: Induction of apoptosis in human PK9 cells assessed as accumulation at sub-G0/G1 phase at 10 uM after 24 hrs by propidium iodide staining based flow cytometry (reference value: 2.2%); type: functional
PK9 [35] = assay: Induction of apoptosis in human PK9 cells assessed as accumulation at sub-G0/G1 phase at 10 uM after 48 hrs by propidium iodide staining based flow cytometry (reference value: 3.8%); type: functional
[36] = Induction of apoptosis in HPNE cells assessed as accumulation at sub-G0/G1 phase at 10 uM after 72 hrs by propidium iodide staining based flow cytometry (reference value: 6.6%); type: cell-based; conditions: human
BXPC-3 [37] = assay: Induction of apoptosis in human BxPC3 cells harboring pSFFV-Bcl-XL assessed as accumulation at sub-G0/G1 phase at 10 uM after 48 hrs by propidium iodide staining based flow cytometry (reference value: 1.9%); type: functional
BXPC-3 [38] = assay: Induction of apoptosis in human BxPC3 cells assessed as accumulation at sub-G0/G1 phase at 10 uM after 24 hrs by propidium iodide staining based flow cytometry (reference value: 1.8%); type: functional

For `CCCCCCCC/C=C\CCCCCCCCOC[C@@H]1[C@@H](O)[C@@H](O)CN1Cc1ccccc1`, the “growth inhibition (GI)” value (PK9 [1]) was “inactive”, the “growth inhibition (GI)” value (SK-BR-3) was “Active” and the “growth inhibition (GI)” value (PANC-1 [2]) was “inactive”.

`C(=C\c1ccc(-c2ccccc2)cc1)/CCCCCCCCOC[C@@H]1CCCN1.Cl` showed an IC50 (PANC-1 [3]) of 5.3 µM, an IC50 (BXPC-3 [4]) of 5.3 µM and an Activity (PANC-1 [5]) of 0.9%. For the same compound, the IC50 (PK9 [6]) was 3.9 µM, the Activity (PANC-1 [7]) was 2.3% and the IC50 (MIA PaCa-2) was 3.7 µM. For the same compound, the Activity (PANC-1 [8]) was 12.2%, the Activity (PANC-1 [9]) was 10.6% and the Activity (PANC-1 [10]) was 3.2%. For the same compound, the Activity (PANC-1 [11]) was 1%.

In the case of `CCCCCCCC/C=C\CCCCCCCCOC[C@@H]1[C@@H](O)[C@@H](O)CN1CCCC`, the “growth inhibition (GI)” value (PK9 [1]) is reported as “inactive”, the “growth inhibition (GI)” value (SK-BR-3) is reported as “Active” and the “growth inhibition (GI)” value (PANC-1 [2]) is reported as “inactive”.

In the case of `CCCCCCCC/C=C/CCCCCCCCOC[C@@H]1CCCN1.Cl`, the IC50 (PANC-1 [3]) is reported as 5.3 µM, the IC50 (BXPC-3 [4]) is reported as 5.3 µM and the Activity (PANC-1 [5]) is reported as 1.2%. It also gave an IC50 (PK9 [6]) of 9.2 µM, an Activity (PANC-1 [7]) of 2.6% and an IC50 (MIA PaCa-2) of 4.2 µM. For the same compound, the Activity (PANC-1 [8]) was 8%, the Activity (PANC-1 [9]) was 2.5% and the Activity (PANC-1 [10]) was 5.3%. The Activity (PANC-1 [11]) was 1.6%.

For `CCCCCCCC/C=C\CCCCCCCCOC[C@@H]1[C@@H](O)[C@@H](O)CN1C(C)C`, the “growth inhibition (GI)” value (PK9 [1]) was “inactive”, the “growth inhibition (GI)” value (SK-BR-3) was “Active” and the “growth inhibition (GI)” value (PANC-1 [2]) was “inactive”.

With `CCCCCCCC/C=C\CCCCCCCCOC[C@@H]1[C@@H](O)[C@@H](O)CN1C` the “growth inhibition (GI)” value (PK9 [1]) was “inactive”, the “growth inhibition (GI)” value (SK-BR-3) was “Active” and the “growth inhibition (GI)” value (PANC-1 [2]) was “inactive”.

With `CCCCCCCC/C=C\CCCCCCCCOCC[C@H]1NC[C@H](O)[C@@H]1O` the Activity (BXPC-3 [12]) was 46.2%, the Activity (PANC-1 [5]) was 5% and the Activity [13] was 67.5%. It also gave an Activity (Fibroblast [14]) of 8.2%, an Activity (BXPC-3 [15]) of 14.6% and an Activity (BXPC-3 [16]) of 17.7%. For the same compound, the Activity (BXPC-3 [17]) was 3.4%, the Activity [18] was 73% and the Activity (BXPC-3 [19]) was 3.1%. The Activity (PK9 [20]) was 2.7%, the Activity [21] was 63.8% and the Activity [22] was 22.2%. The Activity (Fibroblast [23]) was 9.2%, the Activity (BXPC-3 [24]) was 3% and the Activity (BXPC-3 [25]) was 32.5%. The Activity (Fibroblast [26]) was 8.7%, the Activity (BXPC-3 [27]) was 2.3% and the Activity [28] was 12.1%. The Activity (BXPC-3 [29]) was 11.5%, the Activity (PK9 [30]) was 8.3% and the Activity (PANC-1 [7]) was 3.9%. The Activity (PK9 [31]) was 37.7%, the Activity (BXPC-3 [32]) was 4.1% and the Activity (PK9 [33]) was 30.5%. It also gave an Activity (PK9 [34]) of 2.8%, an Activity (PK9 [35]) of 3.4% and an Activity (PANC-1 [8]) of 9.7%. It also gave an Activity (PANC-1 [9]) of 22.6%, an Activity (PANC-1 [10]) of 13.6% and an Activity [36] of 62.8%. The Activity (BXPC-3 [37]) was 3.1%, the Activity (PANC-1 [11]) was 4.7% and the Activity (BXPC-3 [38]) was 4.6%.
